The results in this text go back to patent publication US8114880B2, “Piperidine or piperazine substituted tetrahydro-naphthalene-1-carboxylic acid MTP inhibiting compounds” (Janssen Pharmaceutica N.V., priority 2006, dated 2012).

The subject of one assay is HepG2 cells. The assay can be described thus: Quantification of the secretion of ApoB. The conditions noted are these: Homo sapiens, HepG2, 24 h, 24 hours of incubation, pIC50 = -log IC50. In kind it is cell-based. Summed up:
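At 70% confluency, HepG2 cells received compound (0.4% DMSO final) for 24 h. Secreted apoB in cleared medium was immunoprecipitated with sheep anti-apoB then rabbit anti-sheep antibody (24 h each at 8° C.), and pellet radioactivity was counted by scintillation. IC50 values were expressed as pIC50.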

A further assay deals with MTP (Homo sapiens, UniProt P55157). The assay can be described thus: MTP assay (triglyceride transfer from donor to acceptor vesicles). In kind it is biochemical. The conditions noted are these: MTP activity, percent triglyceride transfer from donor to acceptor vesicles, 37° C. An outline of the steps: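 Radiolabelled triglyceride transfer from donor vesicles (phosphatidylcholine, 7.5 mol % cardiolipin, 0.25 mol % glycerol tri[1-^14C]-oleate) to phosphatidylcholine acceptor vesicles with BSA, pH 7.5 Tris buffer; compounds in DMSO (0.13% final), 5 min preincubation at 37° C before MTP addition. Donor vesicles removed on DEAE-52; acceptor-supernatant ^14C counts give percent transfer.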

Some results are limits rather than exact numbers.

Sequence of MTP (P55157 19-894, species assumed): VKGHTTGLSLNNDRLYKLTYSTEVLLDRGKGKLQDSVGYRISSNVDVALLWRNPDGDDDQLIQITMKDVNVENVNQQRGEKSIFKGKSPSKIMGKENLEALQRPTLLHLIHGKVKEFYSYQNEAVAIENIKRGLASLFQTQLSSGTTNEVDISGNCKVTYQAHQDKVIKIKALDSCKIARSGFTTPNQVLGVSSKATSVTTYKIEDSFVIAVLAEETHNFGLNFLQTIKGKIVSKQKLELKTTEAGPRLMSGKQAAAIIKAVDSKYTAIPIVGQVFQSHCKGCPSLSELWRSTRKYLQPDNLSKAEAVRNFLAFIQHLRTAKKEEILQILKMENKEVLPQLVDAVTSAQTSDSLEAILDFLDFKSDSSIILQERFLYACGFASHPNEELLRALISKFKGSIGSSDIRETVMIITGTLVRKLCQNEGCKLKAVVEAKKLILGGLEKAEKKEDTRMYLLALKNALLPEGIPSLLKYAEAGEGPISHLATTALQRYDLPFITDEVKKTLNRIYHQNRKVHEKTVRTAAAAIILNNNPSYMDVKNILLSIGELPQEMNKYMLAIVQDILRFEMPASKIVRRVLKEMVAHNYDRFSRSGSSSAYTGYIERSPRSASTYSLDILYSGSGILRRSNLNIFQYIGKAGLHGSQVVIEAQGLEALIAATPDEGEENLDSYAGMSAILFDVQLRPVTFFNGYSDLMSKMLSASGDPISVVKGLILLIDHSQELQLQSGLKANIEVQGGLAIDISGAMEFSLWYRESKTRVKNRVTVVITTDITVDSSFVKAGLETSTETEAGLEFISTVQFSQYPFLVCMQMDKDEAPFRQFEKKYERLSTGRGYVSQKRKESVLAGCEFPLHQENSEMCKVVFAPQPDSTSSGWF
Sequence of MTP (P07237 18-508 partner, species assumed): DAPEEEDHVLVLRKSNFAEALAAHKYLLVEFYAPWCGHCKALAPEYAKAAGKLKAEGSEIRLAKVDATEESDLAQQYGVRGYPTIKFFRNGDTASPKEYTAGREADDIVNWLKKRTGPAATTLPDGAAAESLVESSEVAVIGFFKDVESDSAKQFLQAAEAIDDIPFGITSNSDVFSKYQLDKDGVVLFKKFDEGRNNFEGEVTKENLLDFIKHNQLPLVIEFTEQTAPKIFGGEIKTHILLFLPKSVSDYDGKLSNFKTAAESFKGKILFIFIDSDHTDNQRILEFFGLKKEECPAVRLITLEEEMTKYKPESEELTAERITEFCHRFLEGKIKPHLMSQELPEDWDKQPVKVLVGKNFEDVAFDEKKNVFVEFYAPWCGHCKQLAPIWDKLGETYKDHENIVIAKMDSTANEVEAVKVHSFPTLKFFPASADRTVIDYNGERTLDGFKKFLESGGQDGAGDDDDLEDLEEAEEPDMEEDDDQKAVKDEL

In the case of `COC(=O)[C@H](CCCCNC(=O)OC(C)(C)C)NC(=O)[C@@]1(c2ccccc2)CC[C@H](C(=O)N2CCC(NC(=O)c3cccn(C)c3=O)CC2)c2ccccc21` [Co. No. 148], the IC50 (in general, the concentration that gives 50% inhibition) in the assay with HepG2 cells was over 1000 nM; at MTP, 131 nM.
With `CCOC(=O)CCNC(=O)[C@@]1(c2ccccc2)CC[C@H](C(=O)N2CCC(NC(=O)c3cccn(C)c3=O)CC2)c2ccccc21` [Co. No. 159], the IC50 with HepG2 cells is over 1000 nM; at MTP, 129 nM.
For the molecule `Cn1cccc(C(=O)NC2CCN(C(=O)[C@H]3CC[C@@](C(=O)NCCC(=O)OC(C)(C)C)(c4ccccc4)c4ccccc43)CC2)c1=O` [Co. No. 164], the results for the IC50 with HepG2 cells and against MTP were over 1000 nM and 65.2 nM, respectively.
Regarding `Cn1cccc(C(=O)NC2CCN(C(=O)[C@H]3CC[C@@](C(=O)N[C@@H](CCCCNC(=O)OC(C)(C)C)C(=O)OC(C)(C)C)(c4ccccc4)c4ccccc43)CC2)c1=O` [Co. No. 172], the 50% inhibitory concentration (IC50) is over 1000 nM in the assay on HepG2 cells and 33.6 nM at MTP.
Take `COc1ccccc1C(=O)NC1CCN(C(=O)[C@H]2CC[C@@](C(=O)NCCC(=O)OC(C)C)(c3ccccc3)c3ccccc32)CC1` [Co. No. 199]: the IC50 in the assay on HepG2 cells was 7.36 nM; at MTP, 1.32 nM.
For `CCOC(=O)CC(C)NC(=O)[C@@]1(c2ccccc2)CC[C@H](C(=O)N2CCC(NC(=O)c3ccccc3OC)CC2)c2ccccc21` (some centres unmarked) [Co. No. 200], the IC50 in the assay on HepG2 cells was 255 nM; against MTP, 6.79 nM.
Consider `COC(=O)CCCNC(=O)[C@@]1(c2ccccc2)CC[C@H](C(=O)N2CCC(NC(=O)c3ccccc3OC)CC2)c2ccccc21` [Co. No. 201], for which the half-maximal inhibitory concentration (IC50) with HepG2 cells is over 1000 nM; against MTP, 7.76 nM.
As for `CCOC(=O)CCCNC(=O)[C@@]1(c2ccccc2)CC[C@H](C(=O)N2CCC(NC(=O)c3ccccc3OC)CC2)c2ccccc21` [Co. No. 202], the IC50 was 793 nM in the assay with HepG2 cells and 3.16 nM on MTP.
In the case of `COc1ccccc1C(=O)NC1CCN(C(=O)[C@H]2CC[C@@](C(=O)NCCCC(=O)OC(C)(C)C)(c3ccccc3)c3ccccc32)CC1` [Co. No. 203], the figures for the concentration for half-maximal inhibition (IC50) with HepG2 cells and against MTP were 30 nM and 2.05 nM, respectively.
`COC(=O)CCCCNC(=O)[C@@]1(c2ccccc2)CC[C@H](C(=O)N2CCC(NC(=O)c3ccccc3OC)CC2)c2ccccc21` [Co. No. 204]: the concentration for half-maximal inhibition (IC50) with HepG2 cells is over 1000 nM; against MTP, 58.7 nM.
Take `CCOC(=O)CCCCNC(=O)[C@@]1(c2ccccc2)CC[C@H](C(=O)N2CCC(NC(=O)c3ccccc3OC)CC2)c2ccccc21` [Co. No. 205]: the half-inhibitory concentration (IC50) with HepG2 cells was 75.5 nM; against MTP, 5.45 nM.
Turning to `COc1ccccc1C(=O)NC1CCN(C(=O)[C@H]2CC[C@@](C(=O)NCCCCC(=O)OC(C)C)(c3ccccc3)c3ccccc32)CC1` [Co. No. 206], the IC50 with HepG2 cells is 42.4 nM; against MTP it was 2.96 nM.
With `COC(=O)CCCCCNC(=O)[C@@]1(c2ccccc2)CC[C@H](C(=O)N2CCC(NC(=O)c3ccccc3OC)CC2)c2ccccc21` [Co. No. 207], the IC50 with HepG2 cells is over 1000 nM; against MTP, 2.59 nM.
In the case of `COc1ccccc1C(=O)NC1CCN(C(=O)[C@H]2CC[C@@](C(=O)NCCCCCC(=O)OC(C)C)(c3ccccc3)c3ccccc32)CC1` [Co. No. 208], the IC50 was 57.7 nM with HepG2 cells and 1.86 nM at MTP.
The corresponding values for `COc1ccccc1C(=O)NC1CCN(C(=O)[C@H]2CC[C@@](C(=O)NCCCCCC(=O)OC(C)(C)C)(c3ccccc3)c3ccccc32)CC1` [Co. No. 209] are over 1000 nM and 36.2 nM.
With `CCOC(=O)[C@H](CCCCNC(=O)OC(C)(C)C)NC(=O)[C@@]1(c2ccccc2)CC[C@H](C(=O)N2CCC(NC(=O)c3ccccc3OC)CC2)c2ccccc21` [Co. No. 210], the half-inhibitory concentration (IC50) in the assay on HepG2 cells is 8.67 nM; at MTP, 2.95 nM.
With `CCOC(=O)NCCCC[C@H](NC(=O)[C@@]1(c2ccccc2)CC[C@H](C(=O)N2CCC(NC(=O)c3ccccc3OC)CC2)c2ccccc21)C(=O)OCC` [Co. No. 211], the concentration for half-maximal inhibition (IC50) with HepG2 cells was 95.7 nM; against MTP it was 6.1 nM.
In the case of `CCOC(=O)NCCCC[C@H](NC(=O)[C@@]1(c2ccccc2)CC[C@H](C(=O)N2CCC(NC(=O)c3ccccc3OC)CC2)c2ccccc21)C(=O)OC(C)C` [Co. No. 212], the concentration for half-maximal inhibition (IC50) in the assay with HepG2 cells was 22.3 nM; at MTP, 4.34 nM.
For the molecule `COc1ccccc1C(=O)NC1CCN(C(=O)[C@H]2CC[C@@](C(=O)N[C@@H](CCCCNC(=O)OC(C)C)C(=O)OC(C)C)(c3ccccc3)c3ccccc32)CC1` [Co. No. 213], the half-maximal inhibitory concentration (IC50) with HepG2 cells was 5.9 nM; at MTP it was 3.1 nM.
The corresponding values for `COC(=O)[C@H](CCCCNC(=O)[C@@]1(c2ccccc2)CC[C@H](C(=O)N2CCC(NC(=O)c3ccccc3OC)CC2)c2ccccc21)NC(C)=O` [Co. No. 214] are over 1000 nM and 26.8 nM.
As for `COC(=O)[C@@H](CCCCNC(=O)OC(C)(C)C)NC(=O)[C@@]1(c2ccccc2)CC[C@H](C(=O)N2CCC(NC(=O)c3ccccc3OC)CC2)c2ccccc21` [Co. No. 215], the half-inhibitory concentration (IC50) in the assay on HepG2 cells is 18.4 nM; against MTP, 2.92 nM.
The corresponding values for `CCOC(=O)[C@@H](CCCCNC(=O)OC(C)(C)C)NC(=O)[C@@]1(c2ccccc2)CC[C@H](C(=O)N2CCC(NC(=O)c3ccccc3OC)CC2)c2ccccc21` [Co. No. 216] are 31.1 nM and 6.7 nM.
The corresponding values for `CCOC(=O)NCCCC[C@@H](NC(=O)[C@@]1(c2ccccc2)CC[C@H](C(=O)N2CCC(NC(=O)c3ccccc3OC)CC2)c2ccccc21)C(=O)OCC` [Co. No. 217] are 256 nM and 8.22 nM.
In the case of `CCOC(=O)NCCCC[C@@H](NC(=O)[C@@]1(c2ccccc2)CC[C@H](C(=O)N2CCC(NC(=O)c3ccccc3OC)CC2)c2ccccc21)C(=O)OC(C)C` [Co. No. 218], the half-maximal inhibitory concentration (IC50) with HepG2 cells is 65 nM; against MTP it was 2.41 nM.
With `COC(=O)[C@@H](CCCCNC(=O)OC(C)C)NC(=O)[C@@]1(c2ccccc2)CC[C@H](C(=O)N2CCC(NC(=O)c3ccccc3OC)CC2)c2ccccc21` [Co. No. 219], the IC50 in the assay on HepG2 cells was 300 nM; at MTP, 4.24 nM.
As for `CCOC(=O)[C@@H](CCCCNC(=O)OC(C)C)NC(=O)[C@@]1(c2ccccc2)CC[C@H](C(=O)N2CCC(NC(=O)c3ccccc3OC)CC2)c2ccccc21` [Co. No. 220], the figures for the half-maximal inhibitory concentration (IC50) with HepG2 cells and on MTP were 21.1 nM and 1.86 nM, respectively.
As for `COc1ccccc1C(=O)NC1CCN(C(=O)[C@H]2CC[C@@](C(=O)N[C@H](CCCCNC(=O)OC(C)C)C(=O)OC(C)C)(c3ccccc3)c3ccccc32)CC1` [Co. No. 221], the 50% inhibitory concentration (IC50) in the assay with HepG2 cells was 135 nM; at MTP, 1.78 nM.
For `CC(C)OC(=O)CCNC(=O)[C@@]1(c2ccccc2)CC[C@H](C(=O)N2CCC(NC(=O)c3cccn(C)c3=O)CC2)c2ccccc21` [Co. No. 222], the concentration for half-maximal inhibition (IC50) in the assay on HepG2 cells is over 1000 nM; on MTP, 45.8 nM.
The corresponding values for `CCOC(=O)CCCNC(=O)[C@@]1(c2ccccc2)CC[C@H](C(=O)N2CCC(NC(=O)c3cccn(C)c3=O)CC2)c2ccccc21` [Co. No. 225] are over 1000 nM and over 100 nM.
In the same order, the values of `Cn1cccc(C(=O)NC2CCN(C(=O)[C@H]3CC[C@@](C(=O)NCCCC(=O)OC(C)(C)C)(c4ccccc4)c4ccccc43)CC2)c1=O` [Co. No. 226] are over 1000 nM and 111 nM.
The corresponding values for `CC(C)OC(=O)CCCCCNC(=O)[C@@]1(c2ccccc2)CC[C@H](C(=O)N2CCC(NC(=O)c3cccn(C)c3=O)CC2)c2ccccc21` [Co. No. 229] are over 1000 nM and 7.57 nM.
